According to patent US20260053847A1, “HYDROGEN-GAS-CONTAINING DRUG FOR CAUSAL TREATMENT OF ALZHEIMER'S DISEASE (DISEASE-MODIFYING DRUG)” (H2 GLOBAL GROUP S.R.O., priority 2022, published 2026):
Read-outs that look alike come from different tables or passages of the source.

Columns and labels:
[1] = tested on: patients with Alzheimer's disease; details: for changes in ADAS-cog scores versus control group not inhaling hydrogen gas: FIG. 2
Protocol: The ADAS-cog assesses and scores word list equipment, speaking ability, verbal comprehension, speech difficulties in spontaneous speech, completion of commands, object and finger naming, constructional tasks, ideomotor skills, orientation, word recognition, and ability to reproduce test instructions. The range of scores is from 0 to 70, the higher the score, the greater the cognitive impairment (normal→several).
(§1) A mixture of hydrogen gas 3% (v/v) and oxygen gas 21% (v/v) was administered to 8 patients with Alzheimer's disease for 1 hour 2× per day. Inhalation was continued for a period of 6 months, after which hydrogen gas inhalation was discontinued and progress monitored.
(§2) Treatment efficacy was assessed by clinical assessment using ADAS-cog and neural quality (integrity) was assessed by MRI using DTI.
Statistical significance was assessed by Student's t-test, * indicates outputs for p¿ 0.05, ** for p¿ 0.01, indicating significant statistical significance.

[2] = tested on: patient with a severe form of Alzheimer's disease with incontinence of stool and urine; details: one patient
Protocol: (§3) A patient with a severe form of Alzheimer's disease with incontinence of stool and urine was given an inhaled gas mixture containing 3% (v/v) hydrogen gas and 21% (v/v) oxygen gas 2× daily for one hour.
In more detail, the patient was a person who was diagnosed with typical Alzheimer's disease in 2011 and was administered Alzheimer's drugs such as Donepezil, Galantamine, Lithium, etc. The condition was progressively worsening, the ADAS-cog score was 48/70, it was a severe form of Alzheimer's disease.
The patient was unable to recall their date of birth at that time, but was able to walk to the toilet to urinate or defecate on their own. Due to the rapid deterioration of their condition, other treatments were not possible, so hydrogen gas inhalation was started as an adjunctive/complementary therapy on Apr. 19, 2019.

[3] = tested on: patient with a severe form of Alzheimer's disease; details: one patient
Protocol: (§4) For explanation, we note that MRIs of the brain were performed • at the radiology department of Nishijima Hospital and the results were sent to the doctors via an electronic charting system. Digital tractographic imaging was performed using Neuro3D and GRAPPA technology, with five starting points set at locations where nerve bundles passed through the entire hippocampus. DTI was obtained at fractional anisotropy (FA) values of 0.1 and 0.2. The size of the pathway (tract) was calculated from the number of pixels in the pathway (tract) display, the number of pixels was calculated using Image J software. DTI at a fractional anisotropy (FA) value of 0.1 reflects visualization of the neuron as a whole, DTI reflects at a fractional anisotropy (FA) value of 0.2 • to the neural quality of the height visualisation.
as §3
The neural quality was assessed using advanced magnetic resonance imaging technology using the diffusion tensor imaging procedure.

[4] = tested on: test subjects with the alipoprotein E4 (APOE4) genotype exhibiting mild cognitive impairment (MCI); details: APOE4 genotype subgroup of randomized clinical trials; Patent Document 1; cited from earlier work
[5] = Phase I clinical trials; cited from earlier work
[6] = tested on: patients with Alzheimer's disease; details: for DTI area at FA value of 0.2 (neural quality): FIG. 3; for normalised DTI value FA=0.2/FA=0.1, statistical analysis: Student's t-test
Protocol: as §4
For example, the progression of nerve fibers in the hippocampal region of the temporal lobe of the subject's brain can be monitored using diffusion tensor imaging [DTI] and the area of nerve fibers monitored can be analyzed using the process procedures described below. • i) the process of generating a diffusion tensor imaging [DTI] image extracted from the course of nerve fibers in the hippocampal region of the temporal lobe of the subject's brain; • ii) the process of setting five control inputs at regular intervals so that the nerve fiber pathways extracted by process (i) pass through them; • iii) a process in which the fractional anisotropy (FA) is set to 0.2 and an image of the extracted nerve fibers in the hippocampus region is obtained; • iv) a process in which the area of the nerve fiber path is calculated from the number of pixels in the image obtained during the process iii); • v) the process of detecting the manifestations of dementia or predementia based on the measured values of the area of nerve fiber pathways.
In the method described above, the hippocampal region refers to the hippocampal region and the parahippocampal gyrus region; the extracted images of nerve fibers in the hippocampal region are from the lateral and axial views.
When the fractional anisotropy (FA) value is set to 0.1, the extracted image of nerve fibers in the hippocampus region is obtained, and in the process of calculating the area of nerve fiber pathways from the number of pixels in a given image, the area of nerve pathways at FA 0.2 is divided by the area of nerve pathways at FA 0.1 to calculate the FA ratio (normalization).
as §1, §2
For a more accurate quantitative analysis, normalization was performed for each measurement. Data variability was corrected by dividing the F=0.2 value by the simultaneous F=0.1 value. The number of pixels in the corresponding neuronal bundle pathway at FA=0.2 was normalized (divided) by the number of pixels at FA=0.1, and the mean and standard error were obtained from the normalized values from 4 lateral and axial images from the right and left hemispheres of each patient. Statistical significance was assessed by Student's t-test, * indicates outputs for p¿ 0.05, ** for p¿ 0.01, indicating significant statistical significance of the results.

**Q.** For `[HH]` [hydrogen gas, Molecular hydrogen], which “changes in ADAS-cog scores versus control group not inhaling hydrogen gas” value ([1]; 6 months after cessation of inhalation, control 19 patients from past data) is on record?
**A.** improvement persisted

**Q.** What about the “average change in clinical symptoms assessed by ADAS-cog (cognitive function)” value ([1]; 8 patients, hydrogen gas 3% (v/v) + oxygen 21% (v/v), 1 hour 2x per day, continuous inhalation for 6 months, FIG. 1) of the same molecule?
**A.** an initial deterioration, but soon showed an improvement in cognitive function

**Q.** What about the “average change in clinical symptoms assessed by ADAS-cog (cognitive impairment)” value ([1]; 8 patients, six months or one year after cessation of 6-month inhalation, compared to before treatment, FIG. 1) of the same molecule?
**A.** marked improvement in cognitive impairment

**Q.** What about the “statistical significance of effect on ADAS-cog versus control and on normalised DTI” value ([1]; after hydrogen gas inhalation, FIGS. 2 and 4) of the same molecule?
**A.** statistically significant effect

**Q.** And the “changes in ADAS-cog scores versus control group not inhaling hydrogen gas” value ([1]; one year after cessation of treatment, compared to pre-treatment status)?
**A.** the improvement persisted compared to the pre-treatment status

**Q.** What about the “ability to urinate and defecate (incontinence of stool and urine)” value ([2]; ADAS-cog 48/70, 3% (v/v) hydrogen + 21% (v/v) oxygen 2x daily for one hour, after two years of inhalation) of the same molecule?
**A.** able to urinate and defecate on their own

**Q.** What about the “fecal incontinence, frequency or severity of difficulties” value ([2]; January 2020, inhalation started Apr. 19, 2019) of the same molecule?
**A.** no improvement in the frequency or severity of difficulties

**Q.** What about the independent defecation ([2]; since Nov. 18, 2020, inhalation started Apr. 19, 2019) of the same molecule?
**A.** able to go and defecate on their own in almost all cases

**Q.** And the “DTI display at FA=0.2 (qualitative neural quality)” value ([3]; FIG. 5D)?
**A.** new nerves have appeared

**Q.** What about the “area of nerve fibers visualized in the DTI at FA=0.2” value ([3]; after 2 years of inhalation, FIG. 5) of the same molecule?
**A.** increased

**Q.** What about the “changes in DTI over time (effect of inhalation)” value ([3]; after 6 months of hydrogen gas inhalation, FIG. 5) of the same molecule?
**A.** the effect did not appear

**Q.** What about the “number of pixels (DTI area) at F=0.1 and F=0.2” value ([3]; after two years of inhalation (29 to 53 months), FIG. 6) of the same molecule?
**A.** slight increase in the number of pixels

**Q.** And the “condition of subjects with mild cognitive impairment” value [4]?
**A.** improved the condition

**Q.** What about the “safety of hydrogen gas inhalation” value [5] of the same molecule?
**A.** safety of hydrogen gas inhalation has been confirmed

**Q.** And the “normalised DTI value FA=0.2/FA=0.1” value ([6]; 1 year after end of treatment, compared with pre-treatment condition, FIG. 4)?
**A.** beneficial effect, compared with the pre-treatment condition, persisting

**Q.** And the “DTI area at FA value of 0.2 (neural quality)” value (“DTI area at FA value” below) ([6]; 6 months after cessation of hydrogen gas inhalation)?
**A.** persisted

**Q.** What about the “normalised DTI value FA=0.2/FA=0.1, statistical analysis” value ([6]; 6 months after the end of treatment, FIG. 4) of the same molecule?
**A.** significant effect persisting

**Q.** And the “DTI area at FA value” value ([6]; after 6 months of continuous hydrogen gas inhalation, 9 patients as printed)?
**A.** neural quality was improved

**Q.** What about the “normalised DTI value FA=0.2/FA=0.1, statistical analysis” value ([6]; after 6 months of inhalation, FIG. 4) of the same molecule?
**A.** significant effect

**Q.** What about the “DTI area at FA value” value ([6]; one year after the end of inhalation, compared with start of inhalation) of the same molecule?
**A.** able to maintain a favorable result compared with the condition at the start of inhalation
